Patent EP0292365A2, “4-Amino-5,8-quinazolindione derivatives, process for their preparation and pharmaceutical compositions containing them” (CENTRE NATIONAL DE LA RECHERCHE SCIENTIFIQUE, priority 1987, dated 1988)
Where two headings read alike, the source gives them in different places.

Assays:
leucémie murine P388 = conditions: J. Med. Chem. 1983, 26, pp. 1715-1719; cited from earlier work
[1] = J. Med. Chem. 1983, 26, pp. 1715-1719; cited from earlier work
mélanocarcinome B16 = conditions: J. Med. Chem. 1983, 26, pp. 1715-1719; cited from earlier work
cellules L1210 = conditions: J. Med. Chem. 1983, 26, pp. 1715-1719; cited from earlier work
sarcome 180 = conditions: J. Med. Chem. 1983, 26, pp. 1715-1719; cited from earlier work
leucémie L1210 = conditions: J. Med. Chem. 1983, 26, pp. 1715-1719; cited from earlier work
[2] = test system: cellules leucémiques L 1210; test: In vitro cytotoxicity: growth inhibition of L 1210 leukemia cells (Coulter count); assay type: cell-based, souris; conditions: Mus musculus, L1210, 48 h, read-out: CI50 après 48 h de culture
Experimental: La détermination de la cytotoxicité in vitro sur les cellules leucémiques L 1210 est la méthode utilisée pour sélectionner les molécules potentiellement antitumorales. Le protocole mis en oeuvre est le suivant :
les cellules leucématiques L 1210 adaptées à la culture en suspension stationnaire sont entretenues dans du milieu RPMI 1640 (commercialisé par Seromed) additionné de 20 % de sérum de cheval décomplémenté, L-glutamine (2 mM), pénicilline (200 U/ml), streptomycine (50µg/ml) et cultivées à 37° C dans une atmosphère à 5 % de C02. Les cultures testées par la méthode de BARILE (BARILE M.F. Mycoplasmal contamination of cell culture, in Contamination in Tissue Culture, J. Fogh (ed.) Acad. Press, 132-156, 1973) sont exemptes de contaminations bactériennes et mycoplasmiques.
Pour les expérimentations, les cellules sont ensemencées à la concentration de 0,8.10^5 cellules/ml et cultivées par 2 ml dans des flacons de 15 ml. Les substances à étudier sont dissoutes dans du DMSO (1 % final) dont on a préalablement vérifié l'innocuité. Des quantités croissantes de produit à tester sont ajoutées au temps 0 et des numérations sont faites au compteur COULTER après 24 et 48 heures de culture. Des séries de contrôle sont effectuées avec des quantités de DMSO équivalentes à celles des séries traitées.
Le temps de doublement des cellules témoins est approximativement de 12 heures.
La cytotoxicité est déterminée d'après l'inhibition de croissance des cellules L 1210, calculée par rapport aux témoins correspondants selon la formule : [formula] • T = concentration de cellules non traitées, • t = concentration de cellules traitées.
La concentration de produit qui diminue la croissance cellulaire de 50 % (Clso) est calculée d'après la méthode des régressions linéaires en coordonnées log-probit.
Lorsque la Cl50 est voisine de la micromolarité (égale ou inférieure à 1 µM), il existe une présomption d'activité antitumorale et les essais in vivo indiqués ci-après sont effectués.
A titre d'exemple, la CI50 mesurée 48 heures après traitement des cellules par les composés de l'invention testés est la suivante : […]

Leucémie P388 = assay type: in vivo, souris DBA/2; conditions: for Animaux survivants/ animaux traités / T/C / ΔP (J5-J1): P388, greffe ip (10^6 cel), ip J1, suspension dans le Klucel; for activité antitumorale comparée: compared with the quinazolinedione of J. Med. Chem. 1983, 26, 1715-1719
Description: Afin de tester l'activité antitumorale des composés décrits plus haut, on a utilisé les leucémies murines P388 et L1210, ainsi que le mélanome murin B16. La leucémie P388 est considère comme très sensible et permet une première sélection. D'autre part, une substance ayant une grande activité sur la leucémie L1210 a une grande chance d'être active en clinique humaine (J.M. Venditti; Relevance of transplantable animal tumor systems to the Selection of new agents for clinical trial in pharmacological basis of cancer chemotherapy. The University of Texas ed. Williams and Wilkins, publ. 1975, Baltimore USA).
Cette étude a été réalisée sur 1, 2 ou 3 tumeurs murines expérimentales selon le schéma suivant :
Les produits en solution dans l'eau ou en suspension dans du Klucel sont administrés par voie intrapéritonéale 24 heures après la greffe des cellules tumorales (10 animaux par série), soit en injection unique (J1), soit pendant 9 jours consécutifs (Ji-9). Les morts sont relevés chaque jour à la même heure. La comparaison du temps médian de survie des souris témoins (C) et des souris traitées (T) permet d'apprécier l'activité antitumorale du produit. On adopte comme critère d'activité minimale la valeur de T/C supérieure ou égale à 125 % conformément aux critères établis par GERAN et par l'O.M.S. (Réf. GERAN R.I., GREENBERG N.H., MACDONALD M.M., SCHUMACHER A.M. and ABBOTT B.J. Protocols for screening chemical agents and natural products against animal tumors and other biological systems. Cancer Chemother. Rep. Part 3, 3, 1-103 (1972)).
Lorsque le composé est actif sur plusieurs tumeurs, son administration par d'autres voies que la voie intrapéritonéale (i.p.) est envisagée : orale (p.o) et intraveineuse (i.v). Les résultats des essais effectués à l'aide du composé 63 sont rassemblés dans le tableau IV ci-après.
Les résultats des essais effectués à l'aide des composés de l'invention n° 57 et 59 sont rassemblés dans le tableau IV Bis ci-après.
Dans les tableaux IV et IV Bis, P représentent la variation de poids entre J1 et J5 des animaux traités; lorsque P est supérieure à environ 4 g, cela signifie que la dose à laquelle le composé a été testé est toxique.

[3] = Determination of toxicity (DLo), single intraperitoneal dose; assay type: in vivo; conditions: voie intrapéritonéale, dose unique, souris Swiss, suivies pendant un mois
Description: Ils sont tous administrés, par voie intrapéritonéale (ip), à des souris Swiss de 22 ± 2 g, à doses uniques exprimées en mg/kg de poids corporel. Les animaux sont suivis pendant un mois. La mortalité et les signes de toxicité sont relevés. On détermine ainsi la DLoqui sera la dose maximale utilisée pour la détermination de l'activité antitumorale.

[4] = Solubility in water (statement); assay type: physicochemical

SMILES | IC50 [2] | Animaux survivants/ animaux traités (Leucémie P388; 5 mg/kg) | T/C (Leucémie P388; 5 mg/kg) | ΔP (J5-J1) (Leucémie P388; 5 mg/kg) | Animaux survivants/ animaux traités (Leucémie P388; 2,5 mg/kg) | T/C (Leucémie P388; 2,5 mg/kg) | ΔP (J5-J1) (Leucémie P388; 2,5 mg/kg) | activité antitumorale comparée (Leucémie P388) | DLo [3] | solubilité dans l'eau [4] | further results
O=C1C(N2CC2)=C(N2CC2)C(=O)c2ncncc21 [bis(aziridinyl-1)-6,7 quinazolinedione-5,8] | – | – | – | – | – | – | – | – | – | – | activité antitumorale in vivo sur la leucémie murine P388 (leucémie murine P388): une certaine activité antitumorale; activité par voie orale [1]: n'est pas actif; activité in vivo sur le mélanocarcinome B16 (mélanocarcinome B16): très faible activité; cytotoxicité in vitro sur les cellules L1210 (cellules L1210): cytotoxique; activité antitumorale in vivo sur le sarcome 180 (sarcome 180): ne présente pas d'activité antitumorale significative; activité antitumorale in vivo sur la leucémie L1210 (leucémie L1210): ne présente pas d'activité antitumorale significative
O=C1C(N2CC2)=C(N2CC2)C(=O)c2c(NCCCCCCCNc3ncnc4c3C(=O)C(N3CC3)=C(N3CC3)C4=O)ncnc21 [compound 54] | 3.7 nM | – | – | – | – | – | – | – | – | – | –
CN(CCCNc1ncnc2c1C(=O)C(N1CC1)=C(N1CC1)C2=O)CCCNc1ncnc2c1C(=O)C(N1CC1)=C(N1CC1)C2=O [compound 57] | 4.8 nM | 10/10 | 168% | -4,2 g | 10/10 | 150% | -1,8 g | nettement plus actifs | ~2,5 mg/kg | insolubles dans l'eau | Animaux survivants/ animaux traités (Leucémie P388; 1,25 mg/kg): 06/06; T/C (Leucémie P388; 1,25 mg/kg): 137%; ΔP (J5-J1) (Leucémie P388; 1,25 mg/kg): -1,0 g
O=C1C(N2CC2)=C(N2CC2)C(=O)c2c(NCCOCCOCCNc3ncnc4c3C(=O)C(N3CC3)=C(N3CC3)C4=O)ncnc21 [compound 59] | 18 nM | 10/10 | 133% | -1,1 g | 10/10 | 115% | -0,5 g | nettement plus actifs | ~10 mg/kg | insolubles dans l'eau | Animaux survivants/ animaux traités (Leucémie P388; 10 mg/kg): 10/10; T/C (Leucémie P388; 10 mg/kg): 135%; ΔP (J5-J1) (Leucémie P388; 10 mg/kg): -1,8 g; Animaux survivants/ animaux traités (Leucémie P388; 15 mg/kg): 07/10; T/C (Leucémie P388; 15 mg/kg): 145%; ΔP (J5-J1) (Leucémie P388; 15 mg/kg): -4,1 g
COC1=CC(=O)c2ncnc(NCCCN3CCC(C4CCN(CCCNc5ncnc6c5C(=O)C(OC)=CC6=O)CC4)CC3)c2C1=O [compound 70] | – | – | – | – | – | – | – | – | – | – | IC50 ([2]; L 1210 cells, 48 heures après traitement): 1300 nM
